A short description of data set [1]: Inhibition of dog kidney Na+,K+-ATPase by [32P]ATP hydrolysis method. The arrangement: species or system Canis lupus familiaris.
The test system of data set [2] is Cavia porcellus. Kind of data set: […] effect in anesthetized guinea pig assessed as drug level inducing maximun increase in dP/dtmax response relative to control. The class given is functional.
In data set [3] the test system is Cavia porcellus. The data set is described as follows: […] effect in anesthetized guinea pig assessed as increase in dP/dtmax response relative to control. The class given is functional.
The test system of data set [4] is Cavia porcellus. The data set is described as follows: […] effect in anesthetized guinea pig assessed as drug level inducing increase in dP/dtmax response. The class given is functional.
The species entered for data set [5] is Cavia porcellus. The data set is described as follows: Ratio of toxic lethal dose to ED80 for inotropic activity in guinea pig. The class given is functional.
Data set [6] is filed under the species Cavia porcellus. Kind of data set: Toxicity in guinea pig assessed as induction of death. The class given is organism-based. The settings on record: in vivo.

As usually defined, the IC50 is the concentration that gives 50% inhibition. Low values mean greater potency in that assay, high ones weaker potency in that assay. By Emax is commonly meant the maximal effect, on the per cent scale that the assay sets. In data set [1], `C[C@]12CCC(=NO[C@@H]3CCNC3)C[C@@H]1C(=O)C[C@@H]1[C@@H]2CC[C@]2(C)C(=O)CC[C@@H]12` displayed an IC50 of 26 nM. The Activity with Cavia porcellus [2] is 8.09 µmol/kg. In the data set with Cavia porcellus [3], the Emax stood at 223%. Also, the ED80 in the data set with Cavia porcellus [4] is 2.01 µmol/kg. Moreover, the Ratio in the data set filed under Cavia porcellus [5] stood at 12.
In data set [1], `C[C@]12CC/C(=N\OC3CCCNC3)C[C@@H]1C(=O)C[C@@H]1[C@@H]2CC[C@]2(C)C(=O)CC[C@@H]12` (mixture of isomers) yielded an IC50 of 33000 nM.
The same measure, in the same setting: in the case of `CN1CC[C@@H](O/N=C2/CC[C@@]3(C)[C@H](C2)C(=O)C[C@@H]2[C@@H]3CC[C@]3(C)C(=O)CC[C@@H]23)C1` it was 1300 nM; in that of `CNCCO/N=C1/CC[C@@]2(C)[C@H](C1)C(=O)C[C@@H]1[C@@H]2CC[C@]2(C)C(=O)CC[C@@H]12`, 690 nM.
Molecule `CC(C)(N)CO/N=C1/CC[C@@]2(C)[C@H](C1)C(=O)C[C@@H]1[C@@H]2CC[C@]2(C)C(=O)CC[C@@H]12` came in with an IC50 in data set [1] of 28500 nM.
`CCCON=C1CC[C@@]2(C)[C@H](C1)C(=O)C[C@@H]1[C@@H]2CC[C@]2(C)C(=O)CC[C@@H]12` returned an IC50 in data set [1] of 56 nM. For the same molecule, the Activity was 6.79 µmol/kg with Cavia porcellus [2] and “Toxic” in the data set filed under Cavia porcellus [6]. Besides, in the data set on Cavia porcellus [3], the Emax is 260%. Moreover, in the data set on Cavia porcellus [4], the ED80 is 1.03 µmol/kg. The Ratio in the data set filed under Cavia porcellus [5] came to 20.8.
The molecule `C[C@]12CC/C(=N/OCCCCN)C[C@@H]1C(=O)C[C@@H]1[C@@H]2CC[C@]2(C)C(=O)CC[C@@H]12` returned a half-maximal inhibitory concentration (IC50) in data set [1] of 1800 nM.
In turn, `CC(C)(CN)O/N=C1/CC[C@@]2(C)[C@H](C1)C(=O)C[C@@H]1[C@@H]2CC[C@]2(C)C(=O)CC[C@@H]12` gave an IC50 in data set [1] of 21 nM. Against the preceding molecule, the IC50 is about 86-fold lower.
As to `C[C@]12CC/C(=N\OC[C@@H]3CCCN3)C[C@@H]1C(=O)C[C@@H]1[C@@H]2CC[C@]2(C)C(=O)CC[C@@H]12`, the 50% inhibitory concentration (IC50) in data set [1] was 11000 nM.
In turn, `C[C@]12CC/C(=N/O[C@H]3CCNC3)C[C@@H]1[C@@H](O)C[C@@H]1[C@@H]2CC[C@]2(C)C(=O)CC[C@@H]12` came in with an IC50 in data set [1] of 910 nM.
Turning to `C[C@]12CC/C(=N/O[C@@H]3CCNC3)C[C@@H]1[C@H](O)C[C@@H]1[C@@H]2CC[C@]2(C)C(=O)CC[C@@H]12`, the IC50 in data set [1] was found to be 850 nM. For the same molecule, the Activity was 44.8 µmol/kg with Cavia porcellus [2] and “Toxic” in the data set listed under Cavia porcellus [6]. For the same molecule, in the data set on Cavia porcellus [3], the Emax came out at 256%. Moreover, the ED80 in the data set with Cavia porcellus [4] came out at 3.92 µmol/kg. Also, the Ratio in the data set filed under Cavia porcellus [5] was 49.1.
`CN1CC[C@H](O/N=C2/CC[C@@]3(C)[C@H](C2)C(=O)C[C@@H]2[C@@H]3CC[C@]3(C)C(=O)CC[C@@H]23)C1` registered an IC50 in data set [1] of 40500 nM.
Molecule `C[C@]12CC/C(=N/OCCNC(=N)N)C[C@@H]1C(=O)C[C@@H]1[C@@H]2CC[C@]2(C)C(=O)CC[C@@H]12` came in with an IC50 in data set [1] of 12000 nM.
Same read-out and setting: under `C[C@]12CC/C(=N/OC3CNC3)C[C@@H]1C(=O)C[C@@H]1[C@@H]2CC[C@]2(C)C(=O)CC[C@@H]12` stands 100 nM.
Molecule `C[C@]12CC/C(=N/OCCN)C[C@@H]1C(=O)C[C@@H]1[C@@H]2CC[C@]2(C)C(=O)CC[C@@H]12` gave an IC50 in data set [1] of 630 nM. For the same molecule, the Activity in the data set with Cavia porcellus [2] turned out to be 12.1 µmol/kg. The Emax in the data set on Cavia porcellus [3] was 235%. In the data set with Cavia porcellus [4], the ED80 amounted to 3.36 µmol/kg. Besides, the Ratio in the data set filed under Cavia porcellus [5] is given as 22.5.
On to `C[C@]12CC/C(=N\O[C@@H]3CCNC3)C[C@@H]1C(=O)C[C@@H]1[C@@H]2CC[C@]2(C)C(=O)CC[C@@H]12`, for which the IC50 in data set [1] was 16 nM. Also, the values for the Activity in the data set with Cavia porcellus [2] and in the data set filed under Cavia porcellus [6] were 2.65 µmol/kg and “Toxic”, respectively. Besides, in the data set with Cavia porcellus [3], the Emax came to 186%. Also, the ED80 in the data set with Cavia porcellus [4] was found to be 0.75 µmol/kg. For the same molecule, the Ratio in the data set filed under Cavia porcellus [5] came to 8.
In data set [1], `CNCCCO/N=C1/CC[C@@]2(C)[C@H](C1)C(=O)C[C@@H]1[C@@H]2CC[C@]2(C)C(=O)CC[C@@H]12` yielded a concentration for half-maximal inhibition (IC50) of 230 nM.
For `C[C@H](N)CO/N=C1/CC[C@@]2(C)[C@H](C1)C(=O)C[C@@H]1[C@@H]2CC[C@]2(C)C(=O)CC[C@@H]12`, in data set [1], the IC50 is 370 nM. Compared with the last molecule, the IC50 is about 1.6-fold higher.
Molecule `C[C@]12CC/C(=N/O[C@@H]3CCNC3)C[C@@H]1[C@@H](O)C[C@@H]1[C@@H]2CC[C@]2(C)C(=O)CC[C@@H]12` displayed an IC50 in data set [1] of 220 nM. In addition, the Activity with Cavia porcellus [2] amounted to 9.62 µmol/kg. Besides, the maximal response (Emax) in the data set on Cavia porcellus [3] came out at 216%. In the data set with Cavia porcellus [4], the ED80 came to 1.64 µmol/kg. For the same molecule, the Ratio in the data set filed under Cavia porcellus [5] was determined as 21.
`CNCCCO/N=C1/CC[C@@]2(C)[C@H](C1)C(O)C[C@@H]1[C@@H]2CC[C@]2(C)C(=O)CC[C@@H]12` (some centres not stated) yielded an IC50 in data set [1] of 920 nM. For the same molecule, the Activity is 8.95 µmol/kg with Cavia porcellus [2] and “Toxic” in the data set filed under Cavia porcellus [6]. Further, the Emax in the data set with Cavia porcellus [3] was 77%. Further, the Ratio in the data set listed under Cavia porcellus [5] was less than 17.
The molecule `C[C@]12CC/C(=N\OC3CCNCC3)C[C@@H]1C(=O)C[C@@H]1[C@@H]2CC[C@]2(C)C(=O)CC[C@@H]12` gave an IC50 in data set [1] of 1100 nM.
Turning to `CC12CCC3C(CC(=O)C4CC(=NOCCN)CCC43C)C1CCC2=O` (configuration not stated), the IC50 in data set [1] stood at 110 nM. Besides, the Activity in the data set with Cavia porcellus [2] worked out at 5.74 µmol/kg. The maximal response (Emax) with Cavia porcellus [3] came to 182%. Further, the ED80 with Cavia porcellus [4] was determined as 1.82 µmol/kg. Also, in the data set filed under Cavia porcellus [5], the Ratio turned out to be 25.6.
In the case of `C[C@@H](N)CO/N=C1/CC[C@@]2(C)[C@H](C1)C(=O)C[C@@H]1[C@@H]2CC[C@]2(C)C(=O)CC[C@@H]12`, the midpoint of inhibition in data set [1], the IC50, lay at 380 nM.
`C[C@H]1O[C@@H](O[C@H]2[C@@H](O)C[C@H](O[C@H]3[C@@H](O)C[C@H](O[C@H]4CC[C@@]5(C)[C@H](CC[C@@H]6[C@@H]5C[C@@H](O)[C@]5(C)[C@@H](C7=CC(=O)OC7)CC[C@]65O)C4)O[C@@H]3C)O[C@@H]2C)C[C@H](O)[C@@H]1O` [DIGOXIN]: in data set [1], it took 220 nM to reach half-maximal inhibition (IC50). Moreover, the results for the Activity with Cavia porcellus [2] and in the data set filed under Cavia porcellus [6] were 0.97 µmol/kg and “Toxic”, respectively. The maximal response (Emax) in the data set with Cavia porcellus [3] was determined as 127%. Also, the ED80 in the data set with Cavia porcellus [4] was 0.41 µmol/kg. In addition, in the data set filed under Cavia porcellus [5], the Ratio is recorded as 3.2.
Take `C[C@]12CC/C(=N/O[C@H]3CCNC3)C[C@@H]1C(=O)C[C@@H]1[C@@H]2CC[C@]2(C)C(=O)CC[C@@H]12`: half-maximal inhibition in data set [1] (IC50) was put at 240 nM. This counts as sub-micromolar.
Turning to `C[C@]12CC/C(=N/O[C@@H]3CCNC3)C[C@@H]1C(=O)C[C@@H]1[C@@H]2CC[C@]2(C)C(=O)CC[C@@H]12`, in data set [1], the IC50 came out at 250 nM. For the same molecule, the values for the Activity with Cavia porcellus [2] and in the data set filed under Cavia porcellus [6] were 43.5 µmol/kg and “Non-toxic”, respectively. Further, in the data set on Cavia porcellus [3], the Emax amounted to 114%. The ED80 in the data set on Cavia porcellus [4] turned out to be 27.7 µmol/kg. Besides, the Ratio in the data set listed under Cavia porcellus [5] was more than 3.6.
Molecule `C[C@]12CC/C(=N\OC[C@H]3CCCN3)C[C@@H]1C(=O)C[C@@H]1[C@@H]2CC[C@]2(C)C(=O)CC[C@@H]12` yielded an IC50 in data set [1] of 23000 nM.
